US8846628B2, “Oral formulations of cytidine analogs and methods of use thereof” (Celgene Corporation, priority 2008, dated 2014)
Entries after “also recorded” stand apart in the source; their conditions may differ.

Experiments:
[1] = in vivo
[2] = tested on: patients with MDS or AML; test: MTD study CL005: hematological response, IWG criteria; assay type: in vivo, human
Text: Assessment of IWG criteria for certain patients in the MTD study is presented below in Table 10.

[3] = clinical; conditions: human, in vivo
[4] = tested on: patients with MDS or AML; conditions: in vivo
[5] = Rapid Aza Clinical Evaluation (RACE) study CL008: plasma PK; assay type: in vivo; conditions: human; for AUC(0-t) / AUC(0-inf): sc; for AUC(0-t): 75 mg/m^2, one subject (Formulation 4 cohort), SC 75 mg/m^2 (124 mg); for AUC(0-inf): SC 75 mg/m^2 (120 mg)
Experimental: Several oral formulations were evaluated in this study. A “3+7” cohort of patients was enrolled in the study, i.e., three patients were initially tested per formulation, and the cohorts could increase in size up to ten patients. Cohorts were enrolled in parallel.

**Q.** Which results are given for Nc1ncn([C@@H]2O[C@H](CO)[C@@H](O)[C@H]2O)c(=O)n1 [azacitidine, 4-amino-1-β-D-ribofuranosyl-1,3,5-triazin-2(1H)-one]?
**A.** dose proportionality of exposure [1]: did not result in dose-proportional increase in exposure; IWG Assessment ([2]; Patient 02004 (MDS), SC cycle 1, then oral 120 mg x7d Formulation #1 Cycles 2-6, 180 mg x7d Cycles 7-12): morphologic complete response (CR); also recorded: Per IWG 2006 criteria, the patient achieved complete response (CR); also recorded: achieved morphologic complete response per the IWG AML criteria; also recorded: with regard to the ANC condition for the IWG 2000 CR criteria, the patient did not meet the criteria for a complete response; also recorded: CR per IWG 2006 (Days 45-98); also recorded: Morphologic CR per the IWG AML criteria (Diagnosis is MDS); IWG Assessment ([2]; Patient 02007 (CMML), Cohort 4, oral 240 mg Formulation #3 after SC cycle 1, per IWG 2000 criteria): HI-P major improvement per IWG 2000 (Days 35-202); platelets versus baseline ([2]; Patient 02007, oral azacitidine starting with cycle 2 (Formulation #3, 240 mg)): increase in platelets above the baseline levels; IWG Assessment ([2]; Patient 02008 (MDS RAEB-1), Cohort 4, oral 240 mg Formulation #3 after SC cycle 1): HI-P major improvement per IWG 2000 (Days 34-110); IWG Assessment ([2]; Patient 02009 (MDS RAEB-2), Cohort 4, oral 240 mg Formulation #3 after SC cycle 1): Marrow CR (Days 7-111+) per IWG 2006; IWG Assessment ([2]; Patient 02011 (MDS RAEB-1), Cohort 5, oral 300 mg Formulation #3 after SC cycle 1, per IWG 2006 criteria): Marrow CR (Days 7-177+) per IWG 2006; IWG Assessment ([2]; Patient 02011 (MDS RAEB-1), Cohort 5, oral 300 mg Formulation #3 after SC cycle 1, per revised IWG AML criteria): Morphologic CR per the revised IWG AML criteria on Day 21; AUC ([3]; po, 180 mg): 330 ng·h/mL; bioavailability ([3]; po, 180 mg): 30%; AUC ([3]; sc, 75 mg/m2): 1000 ng·h/mL; AUC(0-inf) ([3]; sc, 75 mg/m2, AUC(0-inf)): 1210 ng·h/mL; AUC(0-t) ([3]; sc, 75 mg/m2, AUC(0-t)): 1140 ng·h/mL; Cmax ([3]; sc, 75 mg/m2, Cmax): 697 ng/mL; Tmax ([3]; sc, 75 mg/m2, Tmax): 0.51 h; half-life ([3]; sc, 75 mg/m2, t½): 1.73 h; dose limited toxicity (DLT) [4]: none of the patients have shown dose limited toxicity (DLT); AUC ([5]; 75 mg/m^2, one subject (Formulation 6 cohort), following SC dosing, read-out: AUC (rounded)): ~1700 ng·h/mL; AUC(0-t) ([5]; day 1): 2390 ng·h/mL; AUC(0-t) ([5]; day 15): 2440 ng·h/mL; AUC(0-inf) ([5]; 75 mg/m^2, one subject (Formulation 6 cohort), day 1): 1720 ng·h/mL; AUC(0-inf) ([5]; 75 mg/m^2, one subject (Formulation 6 cohort), day 15): 1640 ng·h/mL
